# Experimental data as given in patent US8592374B2, “Neurotrophic peptides” (Research Foundation for Mental Hygiene, Inc., priority 2007, dated 2013).
# Key:
# [1] = tested on: dentate gyrus progenitors; experiment: DCX expression in BrdU labeled progenitors in the dentate gyrus; assay type: in vivo, mice; settings: 14 day treatment group
# From the text: (§1) All experiments involving mice were done on 8-10 month old female retired breeders of C57BL6 background. A total of 33 mice were divided into 10 groups of 3 animals each (except control group which had 6 mice). The groups are described in Table 1. Details of CNTF peptides are described in Table 2.
# (§2) The animals were kept in groups of 3 per cage. The mice were given daily intraperitoneal injections of four CNTF peptides either separately or in a mixture for 2 weeks as described in table 1. From day 2, BrdU (Bromodeoxyuridine; 150 mg/Kg) was added to the injections. The animals were sacrificed 24 hours after the last injection (FIG. 1). Briefly, the animals were perfused transcardially with PBS and their brains taken out and dissected into halves. One hemisphere from each animal was frozen for biochemical analysis and the other was fixed in 4% paraformaldehyde for 48 hours followed by equilibration in 30% sucrose in PBS overnight. These were then processed for immunohistochemistry.
# (§3) Fixed tissues were cut into 40 μm sections on a freezing sliding microtome. One in 5 sections per brain was processed for BrdU staining and visualized by immunoflorecence. Cell counting was done on these sections to determine the number of BrdU labeled cells (representing newly born cells) in the dentate gyrus of the hippocampus. The area of counting was limited to the granule cell layer and the subgranular zone (a two-nucleus thick layer adjacent to the granule cell layer). For counting purposes, the dentate gyrus was divided into two areas, the outer granule cell layer (oGCL) consisting of out half of the granule cell layer, and the subventricular zone (SVZ) comprising of the inner half (towards the hilus) of the granule cell layer plus a two-nucleus thick layer adjacent to the outer border of the hilus. Cell counting was done on confocal images of the sections according to the optical dissector principle. Volumetric analysis was carried out with the help of Image Pro software.
# [2] = tested on: dentate gyrus progenitor cells; experiment: Cell proliferation (BrdU labeled cells) in the dentate gyrus of mice given CNTF peptides i.p.; assay type: in vivo; settings: for proliferation of dentate gyrus progenitor cells: BrdU labeling, 8-10 month old female C57BL6 mice
# From the text: as §1
# as §2, with “Table” for “table”, “injection.” for “injection (FIG. 1).”
# as §3, with “of one” for “of out”, “the subgranular” for “the subventricular”, “zone (SGZ)” for “zone (SVZ) comprising”
# as §2, §3
# [3] = tested on: neural progenitor cells of the dentate gyrus; experiment: Stereological counts of BrdU-IR cells in subregions of the hippocampus, 30-day pellets; assay type: in vivo, mice
# Protocol: All in vivo studies for characterization of peptides (stereology and behavioral analysis) were performed on 8-10-month-old female retired breeders of C57Bl6 background. The animals were acclimatized for at least 3 weeks to exclude occasional pregnant mice from the studies. Mice were group-housed (3 animals per cage) with a 12:12 light:dark cycle and with free access to food and water. All procedures were conducted in accordance with approved protocols from our institutional Animal Welfare Committee.
# (§4) To study neurogenesis, mice received subcutaneous implants of extended release depot pellets containing either CNTF peptides 6a or 6c for 30 days of continuous dosing (Innovative Research of America, Sarasota, Fla.). For control groups, the pellets consisted of the carrier biopolymer only. For implantation, the mice were anesthetized with 2.5% Avertin (0.38 ml for a 25 g animal). Under sterile conditions, the pellets were then subcutaneously implanted along the anterolateral aspect of the right shoulder with a precision trochar (Innovative Research of America). The animals were then transferred to the animal colony after recovery from anesthesia. There were no complications associated with the implantation and treatment. BrdU was given as two daily i.p. injections (100 mg/kg/dose) for five days starting on day 2 of peptide treatment. Neurogenesis was assessed in the dentate gyrus (DG) by counting the number of BrdU-immunoreactive (BrdU-IR), BrdU-DCX-IR and BrdU-NeuN-IR cells in various layers of the DG. Employing principles of unbiased stereology, the optical fractionator method was used to estimate cell counts for the DG.
# At the end of treatment, all animals were anesthetized with an overdose of sodium pentobarbital and transcardially perfused with 0.1 M PBS. After perfusion, the brains were removed from the skull, the left hemisphere was immediately frozen for future biochemical analysis and the right hemisphere was fixed in 4% paraformaldehyde in 0.1 M PBS for at least 24 hours at room temperature. Tissues were then stored in 30% sucrose solutions at 4° C. until sectioning. The brains were sectioned sagittaly on a freezing sliding microtome at […] through the entire hippocampus and the sections were stored in glycol anti-freeze solution (Ethylene glycol, glycerol and 0.1 M PBS in 3:3:4 ratio) at −20° C. till further processing.
# (§5) Immunohistochemistry was performed as described elsewhere (Kuhn et al., J. Neurosci 17 (15) (1997): 5820-5829). Briefly, every 5th brain section was chosen for quantification of cell number and every 10th section was chosen for staining intensity scanning. Immunohistochemistry was performed on free floating sections. For BrdU immunohistochemistry, epitope retrieval and staining were performed as previously described (Kuhn et al., J. Neurosci 17 (15) (1997): 5820-5829).
# Neurogenesis was assessed in the DG by counting the number of BrdU-immunoreactive (BrdU-IR), BrdU-DCX-IR and BrdU-NeuN-IR cells in various layers of the DG. The granule cell layer (GCL) was subdivided into an inner and outer half (iGCL and oGCL). The iGCL consisted of the subgranular zone (SGZ, defined as a 2-3 nuclei thick layer bordering the GCL) and the inner half of the GCL adjacent to the Hilus (Hil); the outer GCL (oGCL) was defined as the half of the GCL adjacent to the Molecular layer (Mol). A cell in the middle of the GCL was considered part of the iGCL and a cell bordering the GCL in the Mol was included in oGCL counts. […] Hil included the superficial polymorphic layer.
# All sections were collected using the random uniform sampling scheme. For BrdU-IR cells, counting was performed on every 5th section using 40× oil objective of a Nikon 90i fluorescent microscope equipped with Nikon C1 three laser confocal system and a Nikon DS U1 digital camera. Employing principles of unbiased stereology, the optical fractionator method was used to estimate cell counts for the DG (West et al., Anat Rec 231 (1991): 482-497). […]
# [4] = tested on: granule cell layer of the dentate gyrus; experiment: Stereological counts of DCX-, BrdU-NeuN- and c-Fos-NeuN-IR cells in the granule cell layer; assay type: in vivo, mice
# Protocol: as §4
# The following primary antibodies were used for immunohistochemistry: anti-BrdU (1:400; Accurate) a rat monoclonal raised against BrdU; anti-DCX (1:200; Santa Cruz Biotechnology Inc.), a goat polyclonal antibody raised against an 18-amino acid peptide representing residues […] of human doublecortin; anti-NeuN (1:500; Chemicon), a mouse monoclonal antibody raised against purified cell nuclei from mouse brain; Anti-c-Fos (Ab-5) (1:500; Calbiochem), a rabbit polyclonal antibody raised against a synthetic peptide corresponding to amino-acids 4-17 of human c-Fos; SMI52 (1:1000; Sternberger Monoclonals), a mouse monoclonal antibody specific for the mature neuronal marker MAP2a,b; anti-synaptophysin, SYN (1:200; Chemicon), a mouse monoclonal antibody raised against vesicular fraction of bovine brain. The following secondary antibodies were used: Alexa 488-conjugated goat anti-mouse IgG antibody and Alexa 594-conjugated goat anti-rabbit or anti-rat IgG antibody (Molecular Probes); biotinylated anti-rat IgG antibody and Cy5-conjugated goat anti-mouse antibody (Jackson ImmunoResearch).
# as §5
# For BrdU-DCX-, BrdU-NeuN-, and c-Fos-NeuN-IR cells, only GCL (consisting of iGCL and oGLC described above) was counted using 100× oil objective in every 10th section. To ensure objectivity, z-stacks were collected for each double IR cell and analyzed later by generating maximum projection and 3D constructs.
# [5] = tested on: normal adult mice; experiment: Morris Water Maze task, CNTF 6a / CNTF 6c pellets 30 days; assay type: in vivo
# Protocol: For behavioral studies, performance on the Morris Water Maze task was assessed in three groups of 10 mice each (placebo, CNTF6a and CNTF6c) which received peptide treatment for 30 days. To avoid daily stress due to injections, all animals undergoing behavioral studies received subcutaneous implants of CNTF 6a, CNTF 6c or placebo pellets as described above.
# All animals for behavioral testing were coded such that the experimentator was blind to the assignment of the animals to specific treatment groups. The Morris Water Maze procedure was performed using a 110 cm diameter circular tank. Before training, the mice were handled gently for 2-3 min/day during 3 days to minimize non-specific stress. Acquisition was started with the submerged (invisible) escape platform in the North-East quadrant and each animal was given 60 sec to find the submerged escape platform. […] Five such acquisition trials were given on each day, for four consecutive days. A test for retention, or probe trial, was given 24 hours later. During the probe trial the mouse was allowed to swim in the tank without the escape platform for 60 seconds. This was followed by second and third probe trials 15 and 30 days from the first probe trial. Each probe trial was immediately followed by a “retraining session” consisting of 5 trials/animal to consolidate learned behavior.
# The measures of learning were the time and distance swum to reach the escape platform. For retention during the probe trial, the tank was divided into four imaginary quadrants and a small zone where the escape platform had been (virtual platform). The measures of retention were the percent of time spent and the percent of distance swum in each quadrant, and the number of entries into the platform zone.
# Mouse behavior in the Morris Water Maze was monitored by a Samsung Digital Camera (SDC 4304) mounted to the ceiling and tracked and timed by a SMART (Pan Lab/San Diego Instruments) version 2.0.14 software.
# Since normal adult mice were used as experimental animals, it was crucial not to miss any effect on memory acquisition and learning that the 30-day peptide treatment might have had. Therefore, a partial training paradigm was used to evaluate learning and memory in the Morris Water Maze. Treated mice were trained on the Morris Water Maze for a total of 20 sessions spanning 4 days after which they were subjected to the first probe trial (P1). Two additional probe trials (P2 and P3) were administered 15 and 30 days after P1. […] Learning was evaluated in terms of latency and distance traveled to reach the invisible escape platform. Retention was measured on probe trials by the percent of time and travel distance in the target quadrant, and the number of crossings of the virtual platform.
# [6] = daily i.p. injections for 2 weeks
# [7] = 30-day treated mice (n = 5/group)
# [8] = both concentrations (0.5 and 5 nmoles/animal)
substance,measurement,setting,value
EDQQVHFTPTEG (neurotrophic and/or neurogenic peptide) [Peptide 9],differentiation of dentate gyrus progenitors into DCX (doublecortin) expressing cells,[1],did not have any effect
same,cell proliferation in the SGZ,[2]; 0.5 nmoles/animal,increased cell proliferation
same,proliferation of dentate gyrus progenitor cells,[2]; [6],statistically significant increase
V-G-D-G (VGDG; neurotrophic and/or neurogenic peptide) [CNTF 6a],BrdU-IR cell numbers in the four sub-regions of the DG,[3]; 30-day pellets,no effect
same,increase of BrdU-IR cell counts in the GCL compared to placebo,"[3]; 30-day pellets, 50 nmol/peptide/animal/day",not significant effect
same,"Stereological counts (±SEM) of BrdU-IR cells, GCL",[3]; [7],493 ± 28
same,"Stereological counts (±SEM) of BrdU-IR cells, Hil",[3]; [7],126 ± 8
same,"Stereological counts (±SEM) of BrdU-IR cells, Mol",[3]; [7],538 ± 99
same,"Stereological counts (±SEM) of BrdU-IR cells, iGCL",[3]; [7],382 ± 15
same,"Stereological counts (±SEM) of BrdU-IR cells, oGCL",[3]; [7],110 ± 13
same,Stereological counts (±SEM) of cells expressing DCX in the granule cell layer,[4]; [7],360 ± 33
same,"Stereological counts (±SEM), NeuN-BrdU/BrdU in the granule cell layer",[4]; [7],19 ± 2
same,Stereological counts (±SEM) of c-fos-NeuN cells in the granule cell layer,"[4]; 30-day treated mice (n = 5/group), basal activity",214 ± 27
same,increase in BrdU-NeuN-IR cells in the GCL compared with placebo,[4]; 30-day treatment,no effect
same,increase of DCX-IR cells in the GCL compared to placebo,[4]; 30-day treatment,did not show any significant difference
same,learning in the spatial reference memory task (swim latencies),"[5]; 30-day pellets, 20 training sessions over 4 days",no effect
same,percent time spent in the target quadrant across three probe trials,"[5]; P1, P2, P3",reduced this time during subsequent P2 and P3
IPRNEADGMPINV (neurotrophic and/or neurogenic peptide) [Peptide 5],differentiation of dentate gyrus progenitors into DCX (doublecortin) expressing cells,[1],did not have any effect
same,cell proliferation in the SGZ (subgranular zone),[2]; [8],increased cell proliferation
same,cell proliferation in the oGCL (outer portion of the granule cell layer),[2]; [8],increased cell proliferation
same,proliferation of dentate gyrus progenitor cells compared with Peptide 9,[2]; [6],more proliferation than Peptide 9
same,proliferation of dentate gyrus progenitor cells,[2]; [6],statistically significant increase
"CHQGCGGLFEC [Peptide 10, CNTF loop peptide, used as control]",differentiation of dentate gyrus progenitors into DCX (doublecortin) expressing cells,[1],did not have any effect
same,proliferation of dentate gyrus progenitor cells,[2]; [6],no effect
